# Source: paper PMC10597649, “Effect of Astragali radix extract on pharmacokinetic behavior of dapagliflozin in healthy and type 2 diabetic rats” (Frontiers in Pharmacology, 2023)
# Read-outs that look alike come from different tables or passages of the source.
# Legend:
# in vivo = settings: for Cmax / MRT last / half-life / Tmax: male, Sprague-Dawley, rat, plasma, po; for MRT last: MRT(0-t)
# Procedure: An AB SCIEX (USA) Exion LC system consisting of vacuum degasser, binary pump and auto-sampler were used for solvent and sampler delivery. Chromatographic separation was achieved using Agilent Poroshell 120 EC-C18 column (2.1 × 100 mm, 1.9 μm). The column temperature was maintained at 40°C. The mobile phase consisted of 0.1% formic acid-1mM ammonium formate-water solution (A) and acetonitrile (B) was used, and the flow rate was set at 0.3 mL/min. The gradient elution program was as follows: 0–2.0 min (90%–65% A), 2.0–6.0 min (65%–60% A), 6.0–7.0 min (60%–90% A), 7–10 min (90% A). The processed samples were stored at 4°C in an auto sampler. The sample injection volume was 2 μL. An AB SCIEX (USA) Q-TRAP 6500 model mass spectrometer (MS) equipped with a turbolon spray ionization (ESI) source was used for mass analysis and detection. DAPA and the internal standard (IS, i.e., empagliflozin) were analyzed in positive ion mode with multiple reaction monitoring (MRM) pairs: m/z 426.1–355.0 for DAPA and m/z 468.1–355.1 for IS. The ion spray voltage was set at 5500V. The curtain gas, ion source gas 1 and ion source gas 2 were set at 35, 60 and 50 psi, respectively. The source temperature was kept at 200°C. The collision gas was set at low flow rate. The declustering potential and collision energy were 35 V and 19 V for DAPA, 40 V and 21 V for IS.
# The rat plasma samples (50 μL), IS working solution (5 μL), 50% methanol (5 μL), and MTBE (500 μL) were mixed, then were vortexed for 3 min and centrifuged for 5 min (4000 rpm, 4°C). The organic phase was transferred to a new centrifuged tube and evaporated to dryness with a stream of nitrogen at room temperature. The dried samples were redissolved with 100 µL of 50% methanol and vortexed for 1 min, then 2 µL of supernatant fluid was injected into the LC-MS/MS instrument for analysis.
# Male Sprague Dawley (SD) rats (180–220g, 6–8 weeks old) were provided by Animal Experimentation Centre, School of Pharmacy, Fudan University (Shanghai, China). All the experimental procedures for this study were reviewed and approved by Experimental Animal Ethics Committee of School of Pharmacy, Fudan University, which was in strict compliance with the International Code for the Care and Use of Experimental Animals (approval number:2020-04-LY-MG-01). All the animals were housed under standard laboratory conditions of temperature (25°C ± 2°C), constant humidity (55 ± 5%), and light (12 h dark/light cycle), with freely available food and purified water. After 1 week of acclimation, 12 rats were randomly selected as the healthy group that was fed with the ordinary feed. The remaining 20 rats were modeled for T2DM that were fed with high-fat diet (HFD). After 4 weeks, the modeled rats fed HFD were fasted overnight, and measured fasting blood glucose (FBG), then intraperitoneally injected with STZ (35 mg/kg, inject once). One week later, the FBG was measured again, and only those rats whose FBG were over 16.7 mmol/L were considered to be T2DM rats.
# Dose of 1 mg/kg for DAPA used in the study was recommended based on the package insert of DAPA and dose conversion per unit weight from humans to rats (6.3 times). ARE was administered to the rats with the dose of 300 mg/kg, which was selected by converting the recommended doses of AR for adults in practice to the doses of ARE for the rats, according to the Pharmacopoeia of the People’s Republic of China. The healthy rats and T2DM rats were randomly assigned to two groups (n = 6 each group). The CD group was the healthy rats intragastrically administered with DAPA in a single dose (1 mg/kg). The CDA group was the healthy rats intragastrically administered with ARE (300 mg/kg) once a day for seven consecutive days, and intragastrically administered with DAPA (1 mg/kg) at the same time on the seventh day. The MD group was the T2DM rats intragastrically administered with DAPA in a single dose (1 mg/kg).
# [1] = ref Kasichayanula et al., 2013, cited from earlier work
# P-gp = settings: ref Obermeier et al., 2010; cited from earlier work
# [2] = MD group: T2DM rats, DAPA alone, single intragastric dose 1.05 mg/kg, n = 6, mean ± SD
# [3] = MDA group compared to MD group (T2DM rats, with ARE versus DAPA alone)
# [4] = MDA group: T2DM rats, ARE 300 mg/kg intragastric once a day for 7 days + DAPA single dose 1.05 mg/kg on day 7, n = 6, mean ± SD
# [5] = MDA-H group: T2DM rats, ARE 900 mg/kg once a day for 7 days + DAPA single dose 1.05 mg/kg on day 7, n=6, mean ± SD
# [6] = MDA-L group: T2DM rats, ARE 300 mg/kg once a day for 7 days + DAPA single dose 1.05 mg/kg on day 7, n=6, mean ± SD
# [7] = T2DM rats compared to healthy rats, DAPA alone
smiles,measurement,setting,value
"CCOc1ccc(Cc2cc([C@@H]3O[C@H](CO)[C@@H](O)[C@H](O)[C@H]3O)ccc2Cl)cc1 [DAPA, Dapagliflozin]",AUC(0-inf),in vivo; [2],4505.74±148.96 h*(ng/mL)
same,AUC(0-t),in vivo; [2],4324.28±185.47 h*(ng/mL)
same,CL,in vivo; [2],233.25±7.80 (mL/h)/kg
same,V,in vivo; [2],1.49898 ± 0.30743 L/kg
same,decrease of C max,in vivo; [3],31.99%
same,decrease of t max,in vivo; [3],62.50%
same,increase of V,in vivo; [3],2.06 fold
same,increase of t 1/2,in vivo; [3],2.18 fold
same,AUC(0-inf),in vivo; [4],4865.13±1307.11 h*(ng/mL)
same,AUC(0-t),in vivo; [4],4051.27±952.61 h*(ng/mL)
same,CL,in vivo; [4],228.25±56.10 (mL/h)/kg
same,V,in vivo; [4],3.09173 ± 1.18358 L/kg
same,AUC(0-inf),in vivo; [5],4464.67±408.26 h*(ng/mL)
same,AUC(0-t),in vivo; [5],4070.47±408.83 h*(ng/mL)
same,CL,in vivo; [5],237.88±21.93 (mL/h)/kg
same,V,in vivo; [5],2.55248 ± 0.48245 L/kg
same,AUC(0-inf),in vivo; [6],4560.99±768.53 h*(ng/mL)
same,AUC(0-t),in vivo; [6],3991.37±640.65 h*(ng/mL)
same,CL,in vivo; [6],235.15±35.35 (mL/h)/kg
same,V,in vivo; [6],2.91586 ± 0.51024 L/kg
same,decrease of t max,in vivo; [7],29.45%
same,increase of C max,in vivo; [7],62.94%
same,"difference of AUC(0-t), AUC(0-inf), CL, MRT",in vivo; between the MD group and the MDA group (T2DM rats),no significant difference
same,"changes for t 1/2, V, AUC, CL and MRT","in vivo; healthy rats versus T2DM rats, DAPA alone",no significant changes
same,Cmax,"in vivo; 1.05 mg/kg, C max, MD group: T2DM rats, DAPA alone, single intragastric dose 1.05 mg/kg, n = 6, mean ± SD",627 ± 68.6 ng/mL
same,Cmax,"in vivo; 1.05 mg/kg, Cmax, MDA-H group: T2DM rats, ARE 900 mg/kg once a day for 7 days + DAPA single dose 1.05 mg/kg on day 7, n=6, mean ± SD",457 ± 50.4 ng/mL
same,Cmax,"in vivo; 1.05 mg/kg, Cmax, MDA-L group: T2DM rats, ARE 300 mg/kg once a day for 7 days + DAPA single dose 1.05 mg/kg on day 7, n=6, mean ± SD",433 ± 62.6 ng/mL
same,MRT last,"in vivo; 1.05 mg/kg, MD group: T2DM rats, DAPA alone, single intragastric dose 1.05 mg/kg, n = 6, mean ± SD",7.57 ± 0.32 h
same,MRT last,"in vivo; 1.05 mg/kg, MDA-H group: T2DM rats, ARE 900 mg/kg once a day for 7 days + DAPA single dose 1.05 mg/kg on day 7, n=6, mean ± SD",7.23 ± 0.37 h
same,MRT last,"in vivo; 1.05 mg/kg, MDA-L group: T2DM rats, ARE 300 mg/kg once a day for 7 days + DAPA single dose 1.05 mg/kg on day 7, n=6, mean ± SD",7.39 ± 0.34 h
same,half-life,"in vivo; 1.05 mg/kg, t 1/2, MD group: T2DM rats, DAPA alone, single intragastric dose 1.05 mg/kg, n = 6, mean ± SD",4.45 ± 0.9 h
same,half-life,"in vivo; 1.05 mg/kg, t1/2, MDA-H group: T2DM rats, ARE 900 mg/kg once a day for 7 days + DAPA single dose 1.05 mg/kg on day 7, n=6, mean ± SD",7.44 ± 0.86 h
same,half-life,"in vivo; 1.05 mg/kg, t1/2, MDA-L group: T2DM rats, ARE 300 mg/kg once a day for 7 days + DAPA single dose 1.05 mg/kg on day 7, n=6, mean ± SD",8.64 ± 1.08 h
same,Tmax,"in vivo; 1.05 mg/kg, t max, MD group: T2DM rats, DAPA alone, single intragastric dose 1.05 mg/kg, n = 6, mean ± SD",4 h
same,Tmax,"in vivo; 1.05 mg/kg, tmax, MDA-H group: T2DM rats, ARE 900 mg/kg once a day for 7 days + DAPA single dose 1.05 mg/kg on day 7, n=6, mean ± SD",1.45 ± 0.61 h
same,Tmax,"in vivo; 1.05 mg/kg, tmax, MDA-L group: T2DM rats, ARE 300 mg/kg once a day for 7 days + DAPA single dose 1.05 mg/kg on day 7, n=6, mean ± SD",1.25 ± 0.82 h
same,Cmax,"in vivo; C max, MDA group: T2DM rats, ARE 300 mg/kg intragastric once a day for 7 days + DAPA single dose 1.05 mg/kg on day 7, n = 6, mean ± SD",427 ± 58.9 ng/mL
same,MRT last,in vivo; [4],7.64 ± 0.7 h
same,half-life,"in vivo; t 1/2, MDA group: T2DM rats, ARE 300 mg/kg intragastric once a day for 7 days + DAPA single dose 1.05 mg/kg on day 7, n = 6, mean ± SD",9.69 ± 3.47 h
same,Tmax,"in vivo; t max, MDA group: T2DM rats, ARE 300 mg/kg intragastric once a day for 7 days + DAPA single dose 1.05 mg/kg on day 7, n = 6, mean ± SD",1.5 ± 0.77 h
same,increase of C max,[1]; T2DM patients with mild renal function damage versus T2DM patient without,4%
same,increase of C max,[1]; T2DM patients with moderate renal function damage versus T2DM patient without,6%
same,increase of C max,[1]; T2DM patients with severe renal function damage versus T2DM patient without,9%
same,P-gp substrate,P-gp,substrate of P-gp
